Reference: ChEMBL document CHEMBL1201862, “PubChem BioAssay data set” (2004)
Calls of active or inactive are those of the source.

Tests used:
[1] = target: Induced myeloid leukemia cell differentiation protein Mcl-1 (Homo sapiens, UniProt Q07820); assay type: functional
cells [2] = assay type: functional, cell-based
[3] = target: T1, Trace amine-associated receptor 1 (Homo sapiens, UniProt Q96RJ0); assay: Fluorescence-based cell-based high throughput dose response assay to identify agonists of the human trace amine associated receptor 1 (TAAR1).; assay type: functional
T1 sequence (Q96RJ0 whole entry): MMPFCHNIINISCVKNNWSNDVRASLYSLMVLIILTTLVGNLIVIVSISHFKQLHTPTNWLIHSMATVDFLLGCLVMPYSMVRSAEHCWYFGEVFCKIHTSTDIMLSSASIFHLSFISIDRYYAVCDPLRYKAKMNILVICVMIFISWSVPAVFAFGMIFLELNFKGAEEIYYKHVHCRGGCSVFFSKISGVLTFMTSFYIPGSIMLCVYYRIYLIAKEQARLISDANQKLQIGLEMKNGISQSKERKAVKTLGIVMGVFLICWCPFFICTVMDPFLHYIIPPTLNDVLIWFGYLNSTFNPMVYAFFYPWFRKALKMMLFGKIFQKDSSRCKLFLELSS

[4] = target: T1, Trace amine-associated receptor 1; assay: Counterscreen for agonists of the human trace amine associated receptor 1 (hTAAR1): Fluorescence-based cell-based high throughput dose response assay to identify hTAAR1 agonist that also desensitize TAAR1 receptor response.; assay type: functional
cells [5] = assay type: functional, cell-based; remark: listed apart in the source
cells [6] = assay type: functional
[7] = bead-based luminescence quenchers, dual-tagged ARNT – biochemical, AlphaScreen, cherry-pick, artefact control for ARNT-TACC3 interaction inhibitor project, dose response (AID 651705); assay type: functional;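 further: AlphaScreen bead proximity signal that flags compounds interfering with the detection technology; potency reflects signal decrease which marks the compound as an assay artifact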
Nonstructural protein 1 = Nonstructural protein 1 (Influenza A virus, UniProt Q194T2); assay type: functional, Influenza A virus (A/California/07/2009(H1N1))
Beta-galactosidase = Beta-galactosidase (Escherichia coli, UniProt Q8VNN2); assay: Dose response counterscreen for EBI2 assay utilizing the enzyme, b-galactosidase.; assay type: functional
Caspase-3 [8] = target: T2, Caspase-3 (Homo sapiens, UniProt P42574); assay type: functional
T2 sequence (P42574 whole entry): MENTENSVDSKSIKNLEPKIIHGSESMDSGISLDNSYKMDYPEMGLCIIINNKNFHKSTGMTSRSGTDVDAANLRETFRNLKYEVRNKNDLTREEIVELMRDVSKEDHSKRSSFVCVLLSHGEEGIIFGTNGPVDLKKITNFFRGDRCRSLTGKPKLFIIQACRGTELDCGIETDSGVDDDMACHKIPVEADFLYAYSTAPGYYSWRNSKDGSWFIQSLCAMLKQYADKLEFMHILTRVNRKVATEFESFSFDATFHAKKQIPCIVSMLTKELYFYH

[9] = target: T3, Sentrin-specific protease 7 (Homo sapiens, UniProt Q9BQF6); assay type: functional;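 further: Luminescence-based dose-response confirmation of ultra-high-throughput screening hits, measuring inhibition of SENP7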
T3 sequence (Q9BQF6 whole entry): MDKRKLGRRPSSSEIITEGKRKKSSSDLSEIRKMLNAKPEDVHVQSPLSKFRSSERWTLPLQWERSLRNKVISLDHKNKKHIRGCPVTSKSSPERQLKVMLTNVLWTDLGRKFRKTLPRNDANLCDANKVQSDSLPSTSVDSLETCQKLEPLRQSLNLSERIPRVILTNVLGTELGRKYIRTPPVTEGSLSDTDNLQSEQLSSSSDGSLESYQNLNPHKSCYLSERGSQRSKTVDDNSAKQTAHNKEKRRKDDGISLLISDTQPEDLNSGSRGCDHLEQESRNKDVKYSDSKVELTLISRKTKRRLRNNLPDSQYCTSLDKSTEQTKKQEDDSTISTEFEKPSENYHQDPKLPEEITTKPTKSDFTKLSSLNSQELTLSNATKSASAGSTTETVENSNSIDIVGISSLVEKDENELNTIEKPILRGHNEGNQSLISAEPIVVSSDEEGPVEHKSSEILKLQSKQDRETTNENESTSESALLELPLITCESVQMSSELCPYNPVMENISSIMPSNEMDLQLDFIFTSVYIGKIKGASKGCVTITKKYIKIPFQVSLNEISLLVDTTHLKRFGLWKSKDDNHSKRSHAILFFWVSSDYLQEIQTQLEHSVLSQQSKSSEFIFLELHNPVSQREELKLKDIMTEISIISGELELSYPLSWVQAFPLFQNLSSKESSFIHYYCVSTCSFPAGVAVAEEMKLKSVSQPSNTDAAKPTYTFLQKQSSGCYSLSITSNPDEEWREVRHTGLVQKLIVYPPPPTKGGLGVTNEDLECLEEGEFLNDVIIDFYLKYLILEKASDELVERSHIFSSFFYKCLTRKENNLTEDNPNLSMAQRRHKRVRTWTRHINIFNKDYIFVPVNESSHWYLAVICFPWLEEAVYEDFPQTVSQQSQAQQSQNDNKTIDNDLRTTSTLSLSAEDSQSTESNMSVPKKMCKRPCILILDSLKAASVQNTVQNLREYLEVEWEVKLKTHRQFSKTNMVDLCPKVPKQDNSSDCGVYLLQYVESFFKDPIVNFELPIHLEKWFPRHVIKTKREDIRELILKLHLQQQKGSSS

[10] = target: T4, Sentrin-specific protease 6 (Homo sapiens, UniProt Q9GZR1); assay type: functional
T4 sequence (Q9GZR1 whole entry): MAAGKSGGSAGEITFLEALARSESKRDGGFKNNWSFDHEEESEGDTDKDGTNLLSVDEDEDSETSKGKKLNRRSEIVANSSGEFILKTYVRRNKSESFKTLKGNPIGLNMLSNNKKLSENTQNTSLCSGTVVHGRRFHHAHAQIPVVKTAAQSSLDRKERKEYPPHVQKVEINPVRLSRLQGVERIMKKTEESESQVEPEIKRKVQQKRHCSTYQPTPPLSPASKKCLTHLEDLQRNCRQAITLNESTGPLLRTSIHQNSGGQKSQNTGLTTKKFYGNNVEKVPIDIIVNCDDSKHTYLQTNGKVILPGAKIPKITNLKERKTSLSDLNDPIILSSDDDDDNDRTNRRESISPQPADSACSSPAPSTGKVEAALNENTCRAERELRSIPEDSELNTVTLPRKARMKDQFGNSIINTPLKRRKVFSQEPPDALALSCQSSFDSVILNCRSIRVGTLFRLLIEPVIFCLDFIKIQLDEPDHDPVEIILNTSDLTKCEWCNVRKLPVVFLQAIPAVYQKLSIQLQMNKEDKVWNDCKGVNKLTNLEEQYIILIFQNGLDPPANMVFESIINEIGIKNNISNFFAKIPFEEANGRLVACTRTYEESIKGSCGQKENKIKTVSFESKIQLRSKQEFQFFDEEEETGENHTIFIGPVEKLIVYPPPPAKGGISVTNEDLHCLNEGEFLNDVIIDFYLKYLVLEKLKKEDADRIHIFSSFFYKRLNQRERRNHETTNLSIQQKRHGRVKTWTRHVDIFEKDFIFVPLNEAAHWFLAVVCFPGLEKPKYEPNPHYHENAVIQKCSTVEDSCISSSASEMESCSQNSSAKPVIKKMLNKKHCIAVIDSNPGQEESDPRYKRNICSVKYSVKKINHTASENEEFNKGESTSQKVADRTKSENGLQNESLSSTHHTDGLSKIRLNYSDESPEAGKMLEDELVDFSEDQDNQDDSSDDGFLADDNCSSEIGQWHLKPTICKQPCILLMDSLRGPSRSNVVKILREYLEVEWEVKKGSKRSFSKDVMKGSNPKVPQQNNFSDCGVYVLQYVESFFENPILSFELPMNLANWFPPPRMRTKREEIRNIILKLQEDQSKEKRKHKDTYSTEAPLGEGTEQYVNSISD

[11] = target: T5, Sentrin-specific protease 8 (Homo sapiens, UniProt Q96LD8); assay type: functional;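 further: luminescence read-out of SENP8 inhibition, dose-response confirmation following an ultra-high-throughput screen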
T5 sequence (Q96LD8 whole entry): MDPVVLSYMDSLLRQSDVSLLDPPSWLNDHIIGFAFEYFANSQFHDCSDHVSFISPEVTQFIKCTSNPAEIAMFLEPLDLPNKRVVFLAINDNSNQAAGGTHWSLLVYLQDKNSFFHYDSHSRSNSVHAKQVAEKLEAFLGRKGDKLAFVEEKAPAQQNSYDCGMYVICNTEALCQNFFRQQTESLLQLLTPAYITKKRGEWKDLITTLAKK

Cysteine protease ATG4B = target: T6, Cysteine protease ATG4B (Homo sapiens, UniProt Q9Y4P1); assay type: functional;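 further: Fluorescence-based dose-response confirmation assay measuring inhibition of ATG4B activity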
T6 sequence (Q9Y4P1 whole entry): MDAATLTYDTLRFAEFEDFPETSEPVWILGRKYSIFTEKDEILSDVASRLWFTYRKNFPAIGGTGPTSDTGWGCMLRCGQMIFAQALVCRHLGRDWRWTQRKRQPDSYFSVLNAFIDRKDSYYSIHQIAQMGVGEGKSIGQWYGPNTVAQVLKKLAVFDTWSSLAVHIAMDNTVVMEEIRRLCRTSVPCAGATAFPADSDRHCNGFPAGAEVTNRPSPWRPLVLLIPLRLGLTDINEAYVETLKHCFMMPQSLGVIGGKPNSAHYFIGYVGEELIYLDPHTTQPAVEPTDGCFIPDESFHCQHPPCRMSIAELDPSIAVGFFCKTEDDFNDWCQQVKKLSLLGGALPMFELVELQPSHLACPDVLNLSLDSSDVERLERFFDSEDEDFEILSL

Phospholipase A2 = Phospholipase A2 (Homo sapiens, UniProt P04054); assay type: functional;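 further: confirmatory dose-response counterscreen on phospholipase A2, testing hits that came from an ultra-high-throughput screen for ATG4B inhibitors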
[12] = target: T5, Sentrin-specific protease 8; assay: inhibition of human SENP8 cleavage activity – biochemical, luminescence, SAR follow-up (AID 504501); assay type: functional
Caspase-3 [13] = target: T2, Caspase-3; assay: SAR Analysis of small molecule inhibitors of Sentrin-specific proteases (SENPs) using a Caspase-3 Selectivity assay. [Related pubchem assays (depositor defined):AID2540, AID2599, AID434973, AID489001]; assay type: functional
[14] = target: T4, Sentrin-specific protease 6; assay: SAR Analysis of small molecule inhibitors of Sentrin-specific protease 6 (SENP6) using a Luminescent assay. [Related pubchem assays (depositor defined):AID2582, AID2599]; assay type: functional
[15] = target: T3, Sentrin-specific protease 7; assay: inhibition of human SENP7 cleavage activity – biochemical, luminescence, SAR follow-up (AID 504497); assay type: functional
[16] = viability of uninfected HEp-2 cells – cell-based, HTS, cytotoxicity control for RSV inhibitor project, dose response (AID 2410); assay type: functional; conditions: human respiratory syncytial virus
[17] = target: T7, Fructose-bisphosphate aldolase (Mycobacterium tuberculosis, UniProt P9WQA3); assay: Fluorescence-based biochemical high throughput dose response assay for inhibitors of the fructose-bisphosphate aldolase (FBA) of M. tuberculosis.; assay type: functional
T7 sequence (P9WQA3 whole entry): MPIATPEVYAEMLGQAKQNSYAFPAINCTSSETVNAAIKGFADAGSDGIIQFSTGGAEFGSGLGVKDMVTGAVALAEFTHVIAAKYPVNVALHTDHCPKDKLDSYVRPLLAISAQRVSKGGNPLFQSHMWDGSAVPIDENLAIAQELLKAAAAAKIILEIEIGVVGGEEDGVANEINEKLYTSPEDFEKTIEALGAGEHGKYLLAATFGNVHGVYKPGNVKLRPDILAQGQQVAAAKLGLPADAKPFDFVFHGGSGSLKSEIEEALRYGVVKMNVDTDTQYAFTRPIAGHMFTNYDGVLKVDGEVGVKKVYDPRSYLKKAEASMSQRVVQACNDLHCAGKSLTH

Chain of Beta-galactosidase (Q8VNN2 whole entry): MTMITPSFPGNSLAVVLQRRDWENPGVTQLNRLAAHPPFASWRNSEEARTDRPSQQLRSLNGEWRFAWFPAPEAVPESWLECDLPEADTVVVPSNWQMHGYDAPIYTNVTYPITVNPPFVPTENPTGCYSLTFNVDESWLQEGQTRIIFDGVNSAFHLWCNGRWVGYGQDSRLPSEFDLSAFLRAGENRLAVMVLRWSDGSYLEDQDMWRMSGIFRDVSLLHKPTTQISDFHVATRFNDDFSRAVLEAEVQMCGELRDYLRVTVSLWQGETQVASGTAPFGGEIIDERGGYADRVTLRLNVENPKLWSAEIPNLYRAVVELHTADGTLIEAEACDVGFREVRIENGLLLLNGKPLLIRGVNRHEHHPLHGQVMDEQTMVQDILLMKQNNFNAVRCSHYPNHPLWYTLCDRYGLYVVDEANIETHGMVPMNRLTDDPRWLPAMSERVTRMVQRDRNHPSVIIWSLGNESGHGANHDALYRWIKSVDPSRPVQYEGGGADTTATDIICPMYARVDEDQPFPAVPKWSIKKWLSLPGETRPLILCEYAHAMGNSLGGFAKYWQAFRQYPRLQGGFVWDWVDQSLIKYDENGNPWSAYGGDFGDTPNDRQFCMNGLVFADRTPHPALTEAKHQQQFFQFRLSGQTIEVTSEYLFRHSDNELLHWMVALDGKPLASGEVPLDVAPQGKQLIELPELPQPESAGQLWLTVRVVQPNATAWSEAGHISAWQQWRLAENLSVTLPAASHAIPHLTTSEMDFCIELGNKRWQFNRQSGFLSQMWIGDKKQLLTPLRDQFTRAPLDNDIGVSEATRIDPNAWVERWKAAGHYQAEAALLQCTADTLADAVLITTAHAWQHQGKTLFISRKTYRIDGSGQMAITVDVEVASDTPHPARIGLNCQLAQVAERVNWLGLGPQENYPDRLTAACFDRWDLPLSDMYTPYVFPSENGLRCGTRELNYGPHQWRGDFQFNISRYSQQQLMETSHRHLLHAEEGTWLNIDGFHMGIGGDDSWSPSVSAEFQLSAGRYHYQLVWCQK
Chain of Nonstructural protein 1 (Q194T2 whole entry): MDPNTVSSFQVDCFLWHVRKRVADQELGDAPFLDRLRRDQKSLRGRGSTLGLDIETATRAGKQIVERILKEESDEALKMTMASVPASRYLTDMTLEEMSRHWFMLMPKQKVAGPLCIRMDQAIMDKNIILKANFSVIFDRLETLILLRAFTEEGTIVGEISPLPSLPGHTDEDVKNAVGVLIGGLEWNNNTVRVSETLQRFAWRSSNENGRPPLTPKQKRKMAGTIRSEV
Chain of Phospholipase A2 (P04054 whole entry): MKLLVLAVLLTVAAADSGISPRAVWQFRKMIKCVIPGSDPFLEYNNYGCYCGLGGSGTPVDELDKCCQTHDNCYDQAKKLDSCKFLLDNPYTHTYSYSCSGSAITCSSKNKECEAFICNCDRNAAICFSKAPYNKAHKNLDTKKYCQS
Chain of Induced myeloid leukemia cell differentiation protein Mcl-1 (Q07820 whole entry): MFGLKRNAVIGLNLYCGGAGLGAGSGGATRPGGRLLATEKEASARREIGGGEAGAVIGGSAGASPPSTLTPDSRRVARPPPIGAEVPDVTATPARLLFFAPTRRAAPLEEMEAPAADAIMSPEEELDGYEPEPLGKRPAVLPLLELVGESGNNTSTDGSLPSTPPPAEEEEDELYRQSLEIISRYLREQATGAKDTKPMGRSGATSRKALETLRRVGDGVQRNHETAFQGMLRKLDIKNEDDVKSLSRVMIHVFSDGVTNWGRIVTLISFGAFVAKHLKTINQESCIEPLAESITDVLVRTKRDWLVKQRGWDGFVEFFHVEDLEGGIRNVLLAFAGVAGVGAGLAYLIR

## COc1cc(C(c2nnnn2C2CCCC2)N2CCc3ccccc3C2)ccc1O (stereo unspecified)
[1]
  IC50: 12.8 µM (active)
Cells [2]
  IC50: > 29.9 µM (inactive)
[3]
  EC50: 0.496 µM (active)
[4]
  IC50: 1.33 µM (active)
Cells [5]
  EC50: > 29.9 µM (inactive)

## COc1ccc(C(=O)Nc2nnc(C3=COCCO3)o2)cc1
Cells [6]
  IC50: 5.45 µM (active)
[7]
  AC50: 107 µM (active)

## c1ccc(CNCCN2CCNCC2)nc1
Nonstructural protein 1
  IC50: 7.87 µM (active)
[7]
  AC50: 121 µM (active)

## COc1cc(OC)c(C(=O)OCC(=O)Nc2nnc(-c3ccccc3)o2)cc1OC
[7]
  AC50: 112 µM (active)

## O=C(NCCc1ccccc1)c1ccc([N+](=O)[O-])cc1
Cells [2]
  IC50: > 29.9 µM (inactive)
[3]
  EC50: 2.32 µM (active)
[4]
  IC50: 7.32 µM (active)
Cells [5]
  EC50: > 29.9 µM (inactive)

## O=C(c1cc2cc(Cl)ccc2[nH]1)N1CCN(c2ccccc2F)CC1
Beta-galactosidase
  IC50: > 80 µM (inactive)

## CC(C)(C)c1ccc2c(c1)C(=O)c1ccccc1C2=O
Caspase-3 [8]
  IC50: > 100 µM (inactive)
[9]
  IC50: > 100 µM (inactive)
[10]
  IC50: 4.05 µM (active)
[11]
  IC50: > 100 µM (inactive)
Cysteine protease ATG4B
  IC50: 9.47 µM (active)
Phospholipase A2
  IC50: 6.46 µM (active)
[12]
  IC50: 1.12 µM (active)
Caspase-3 [13]
  IC50: 0.934 µM (active)
[14]
  IC50: 0.927 µM (active)
[15]
  IC50: 0.635 µM (active)

## COc1ccc(C2=NN(C(=O)CSc3cn(C)c4ccccc34)C(c3ccc(OC)cc3)C2)cc1 (stereo unspecified)
[16]
  CC50: 30.2 µM (active)
Beta-galactosidase
  IC50: > 80 µM (inactive)

## Cc1cc(=O)oc2cc(OCC(=O)N3CCCC3)ccc12
[17]
  IC50: 2.54 µM (active)

## CC(Oc1ccc2c(c1)oc(=O)c1ccccc12)C(=O)NCCCN1CCOCC1 (stereo unspecified)
[17]
  IC50: 1.5 µM (active)

## N#Cc1c(O)ncc(/C=N/N=C/c2ccccc2)c1Nc1ccccc1
Beta-galactosidase
  IC50: > 80 µM (inactive)

## COc1ccc2cc(C(N)=O)/c(=N/c3ccccc3)oc2c1
[17]
  IC50: > 10 µM (inactive)
